Results on 1 molecule are retold here after PMC5138414, “Structural Basis for Redox Regulation of Cytoplasmic and Chloroplastic Triosephosphate Isomerases from Arabidopsis thaliana” (Frontiers in Plant Science, 2016).

Common to all, as to experiment: residual activity after MMTS incubation, coupled assay at […] nm
What all share (format): biochemical

In assay [1] the target is T1, cTPI (Arabidopsis thaliana, UniProt P48491).
T1 construct: gene CTIMC; homodimer
To be noted: covalent (C13, C218); 3 h incubation at room temperature, 0.184 nM enzyme, TEA pH 7.4, 10 mM EDTA.

The target in assay [2] is T2, pdTPI (Arabidopsis thaliana, UniProt Q9SKP6).
T2 construct: gene TIM; homodimer
To be noted: covalent (cysteine); 3 h incubation at room temperature, 0.184 nM enzyme, TEA pH 7.4, 10 mM EDTA; MMTS 0-50 µM.
Target sequence in this assay (Q9SKP6 60-315 C148S): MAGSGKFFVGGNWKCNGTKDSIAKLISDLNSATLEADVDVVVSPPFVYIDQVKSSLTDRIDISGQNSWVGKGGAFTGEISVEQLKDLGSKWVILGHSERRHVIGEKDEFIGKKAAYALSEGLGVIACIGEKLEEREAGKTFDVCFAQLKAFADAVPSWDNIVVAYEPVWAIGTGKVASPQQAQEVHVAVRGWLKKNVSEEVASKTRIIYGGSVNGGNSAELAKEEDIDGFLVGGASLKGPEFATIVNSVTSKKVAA

For assay [3], the target named is T2, pdTPI. To be noted: read-out: 50% of enzymatic activity.
Target sequence in this assay (Q9SKP6 60-315): as the sequence (Q9SKP6 60-315 C148S) above, with S89C counted along it
Assay [4] addresses T3, cTPI (Arabidopsis thaliana, UniProt P48491, C218S).
T3 construct: gene CTIMC; homodimer
T3 sequence (P48491 1-254 C218S): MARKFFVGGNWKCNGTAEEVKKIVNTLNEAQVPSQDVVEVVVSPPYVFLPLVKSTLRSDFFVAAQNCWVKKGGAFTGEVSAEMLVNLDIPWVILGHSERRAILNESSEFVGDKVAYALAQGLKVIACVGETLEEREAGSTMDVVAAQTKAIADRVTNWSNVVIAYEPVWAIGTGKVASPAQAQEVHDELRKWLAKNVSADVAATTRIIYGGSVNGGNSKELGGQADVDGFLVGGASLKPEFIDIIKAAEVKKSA
The following applies: read-out: MMTS concentration necessary to inhibit 50%.

Assay [5] addresses T4, cTPI (Arabidopsis thaliana, UniProt P48491, C13S).
T4 construct: gene CTIMC; homodimer

As a reminder, the remaining activity is the share of the control activity or signal that is left under treatment. The low end stands for little activity left, the high end for much activity left.

T1 sequence (P48491 whole entry): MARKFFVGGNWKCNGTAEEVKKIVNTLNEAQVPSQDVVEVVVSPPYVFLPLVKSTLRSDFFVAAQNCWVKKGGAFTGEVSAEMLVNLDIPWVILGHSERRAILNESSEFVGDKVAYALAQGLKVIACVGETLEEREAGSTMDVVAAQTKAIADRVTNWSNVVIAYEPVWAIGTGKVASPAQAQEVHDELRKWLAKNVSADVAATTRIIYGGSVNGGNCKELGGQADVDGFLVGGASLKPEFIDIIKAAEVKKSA
T4 sequence (P48491 whole entry C13S): as the sequence (P48491 whole entry) above, with C13S counted along it

As to `CSS(C)(=O)=O` [MMTS], on cTPI [1], the “% decrease of activity at 31.25 nM” value came out at 90%. The “% activity remaining (dose curve)” value on pdTPI [2] is on record as “Mutation pdTPI-C89S is more susceptible to MMTS inhibition”. Moreover, the IC50 at pdTPI [3] was > 10000 nM; on cTPI [4], 125 nM. The molecule also gave a remaining activity at 0.125 µM on cTPI [5] of 70%.
